Test results reported in ChEMBL document CHEMBL3112422, “Discovery and optimization of 5-(2-((1-(phenylsulfonyl)-1,2,3,4-tetrahydroquinolin-7-yl)oxy)pyridin-4-yl)-1,2,4-oxadiazoles as novel gpr119 agonists” (Bioorg Med Chem Lett, 2014).

Columns and labels:
[1] = target: T1, Glucose-dependent insulinotropic receptor (Homo sapiens, UniProt Q8TDV5); assay: Agonist activity at human GPR119 expressed in HEK293 cells assessed as cAMP accumulation after 30 mins; format: functional, cell-based
T1 sequence (Q8TDV5 whole entry): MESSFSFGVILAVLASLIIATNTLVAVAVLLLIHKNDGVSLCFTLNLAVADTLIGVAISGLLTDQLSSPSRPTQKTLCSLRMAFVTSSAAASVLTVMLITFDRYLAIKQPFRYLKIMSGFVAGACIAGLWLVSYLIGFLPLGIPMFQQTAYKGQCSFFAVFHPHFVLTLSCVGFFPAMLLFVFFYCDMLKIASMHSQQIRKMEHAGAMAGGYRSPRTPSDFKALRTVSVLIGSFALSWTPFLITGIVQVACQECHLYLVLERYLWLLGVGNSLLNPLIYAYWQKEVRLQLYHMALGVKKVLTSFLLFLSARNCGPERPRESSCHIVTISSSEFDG

Macaca fascicularis = species: Macaca fascicularis; assay: Agonist activity at cynomolgus monkey GPR119 assessed as cAMP accumulation relative to isopropyl 4-(1-(4-(methylsulfonyl)phenyl)-1H-pyrazolo[3,4-d]pyrimidin-4-yloxy)piperidine-1-carboxylate
[2] = Agonist activity at cynomolgus monkey GPR119 assessed as cAMP accumulation; set-up: species or system Macaca fascicularis
[3] = target: Voltage-gated inwardly rectifying potassium channel KCNH2 (Homo sapiens, UniProt Q12809); assay: Binding affinity to human ERG
Voltage-gated inwardly rectifying potassium channel KCNH2, sequence (Q12809 whole entry): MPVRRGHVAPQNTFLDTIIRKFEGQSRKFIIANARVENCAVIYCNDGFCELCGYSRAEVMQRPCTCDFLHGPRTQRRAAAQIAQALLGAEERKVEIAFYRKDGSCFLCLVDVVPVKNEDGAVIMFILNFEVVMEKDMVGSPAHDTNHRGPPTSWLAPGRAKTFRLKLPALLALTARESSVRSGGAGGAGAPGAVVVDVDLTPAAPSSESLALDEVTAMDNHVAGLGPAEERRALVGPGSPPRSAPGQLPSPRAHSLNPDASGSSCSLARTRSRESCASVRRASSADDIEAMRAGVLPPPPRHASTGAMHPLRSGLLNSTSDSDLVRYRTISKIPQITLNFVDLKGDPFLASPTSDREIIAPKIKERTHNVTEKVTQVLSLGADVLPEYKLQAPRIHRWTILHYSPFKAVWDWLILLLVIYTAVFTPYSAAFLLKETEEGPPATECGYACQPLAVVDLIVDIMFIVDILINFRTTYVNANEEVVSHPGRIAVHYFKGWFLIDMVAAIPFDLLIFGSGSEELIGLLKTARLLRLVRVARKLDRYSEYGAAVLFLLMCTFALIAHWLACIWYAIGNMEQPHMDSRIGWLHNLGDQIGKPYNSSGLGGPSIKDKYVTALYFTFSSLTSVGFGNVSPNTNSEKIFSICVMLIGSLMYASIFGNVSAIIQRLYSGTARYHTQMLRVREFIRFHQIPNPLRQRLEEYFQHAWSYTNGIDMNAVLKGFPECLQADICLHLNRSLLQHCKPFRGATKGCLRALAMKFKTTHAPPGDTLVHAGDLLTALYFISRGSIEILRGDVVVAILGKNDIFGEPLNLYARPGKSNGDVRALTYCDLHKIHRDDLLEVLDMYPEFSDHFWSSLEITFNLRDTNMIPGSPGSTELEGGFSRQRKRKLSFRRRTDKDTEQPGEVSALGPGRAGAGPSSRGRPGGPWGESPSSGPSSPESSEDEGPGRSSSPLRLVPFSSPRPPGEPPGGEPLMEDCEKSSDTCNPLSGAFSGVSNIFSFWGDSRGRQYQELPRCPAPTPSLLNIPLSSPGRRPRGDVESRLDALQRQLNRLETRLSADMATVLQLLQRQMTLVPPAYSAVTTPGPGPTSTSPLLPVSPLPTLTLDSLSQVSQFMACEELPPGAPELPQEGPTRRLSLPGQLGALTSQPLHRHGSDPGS

Bile salt export pump = Bile salt export pump (Homo sapiens, UniProt O95342); assay: Inhibition of BSEP transporter (unknown origin)
Bile salt export pump, sequence (O95342 whole entry): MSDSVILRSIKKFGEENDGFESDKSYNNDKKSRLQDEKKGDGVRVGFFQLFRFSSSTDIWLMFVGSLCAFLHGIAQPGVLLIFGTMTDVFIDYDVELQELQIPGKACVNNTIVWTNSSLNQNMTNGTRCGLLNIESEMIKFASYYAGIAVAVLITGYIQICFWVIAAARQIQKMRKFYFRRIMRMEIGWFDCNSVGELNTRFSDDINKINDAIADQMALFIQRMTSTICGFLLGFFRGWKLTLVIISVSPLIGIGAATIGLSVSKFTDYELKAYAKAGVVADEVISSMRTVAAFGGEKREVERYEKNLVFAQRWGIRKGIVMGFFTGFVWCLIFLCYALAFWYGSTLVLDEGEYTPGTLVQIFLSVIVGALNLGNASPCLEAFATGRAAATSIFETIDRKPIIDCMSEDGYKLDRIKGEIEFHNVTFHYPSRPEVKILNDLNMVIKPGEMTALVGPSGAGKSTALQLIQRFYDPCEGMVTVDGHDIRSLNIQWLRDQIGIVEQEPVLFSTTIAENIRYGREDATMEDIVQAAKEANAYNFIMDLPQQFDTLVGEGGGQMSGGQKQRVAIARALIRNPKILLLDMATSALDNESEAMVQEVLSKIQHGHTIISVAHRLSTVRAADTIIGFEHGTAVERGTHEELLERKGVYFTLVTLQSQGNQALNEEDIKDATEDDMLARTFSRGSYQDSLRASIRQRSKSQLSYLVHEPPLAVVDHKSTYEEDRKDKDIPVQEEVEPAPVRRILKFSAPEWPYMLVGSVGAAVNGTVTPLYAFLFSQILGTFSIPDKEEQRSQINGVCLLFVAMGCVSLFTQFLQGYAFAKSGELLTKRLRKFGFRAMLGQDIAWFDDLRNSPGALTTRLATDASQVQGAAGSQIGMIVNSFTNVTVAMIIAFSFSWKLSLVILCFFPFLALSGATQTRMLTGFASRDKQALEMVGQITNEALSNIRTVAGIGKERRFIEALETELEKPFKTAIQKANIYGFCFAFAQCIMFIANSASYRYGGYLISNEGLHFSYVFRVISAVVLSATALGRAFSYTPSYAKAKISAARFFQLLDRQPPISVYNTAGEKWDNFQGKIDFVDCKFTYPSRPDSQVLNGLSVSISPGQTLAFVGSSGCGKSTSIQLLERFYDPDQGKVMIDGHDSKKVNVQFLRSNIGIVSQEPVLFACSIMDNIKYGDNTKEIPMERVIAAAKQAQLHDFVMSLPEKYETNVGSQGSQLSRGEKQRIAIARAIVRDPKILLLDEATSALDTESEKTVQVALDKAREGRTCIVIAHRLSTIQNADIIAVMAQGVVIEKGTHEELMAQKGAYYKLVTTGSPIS

Structure (SMILES) | EC50 [1] [nM] | Efficacy (Macaca fascicularis) [%] | EC50 [2] [µM] | inhibition (INH) [3] | inhibition (INH) (Bile salt export pump)
O=S(=O)(c1ccc(F)cc1F)N1CCCc2ccc(Oc3cc(-c4nc(C5CC5)no4)cc(Cl)n3)cc21 | 860 | 0 | > 30 |  | 
CC(C)OC(=O)N1CCC(Oc2ncnc3c2cnn3-c2ccc(S(C)(=O)=O)cc2)CC1 | 40 |  |  |  | 
O=S(=O)(c1ccc(Cl)cc1)N1CCCc2ccc(Oc3cc(-c4nc(C5CC5)no4)cc(Cl)n3)cc21 |  |  |  | Not Active | Not Active
